Measurements taken from patent publication US20230132582A1, “NOVEL USE OF ASPIRIN COMPOUND IN INCREASING NUCLEIC ACID EXPRESSION” (priority 2020, published 2023).

What was measured:
[1] = test system: expression of luciferase from AAV9-Lxp3.3-Gluc virus; test: AAV9-mediated luciferase (Gluc) expression in plasma of mice pre-treated with aspirin at different doses (Example 2); format: in vivo, C57BL/6J mice
Protocol: (§1) Male C57BL/6J mice (purchased from Shanghai Jiesijie Experimental Animals Co., Ltd.) (n=4) with an average weight of 20 g were divided into six groups. Aspirin was used for intraperitoneal injection for 7 consecutive days (Day −7 to Day −1), at doses of 1 mg/kg, 15 mg/kg, 30 mg/kg, 50 mg/kg, 100 mg/kg, respectively, to five groups of mice. The sixth group was injected with 5% castor oil (in PBS buffer (catalogue number: 02-024-1ACS, BI)) as a control. On Day 0, AAV9-Lxp3.3-Gluc virus was injected intravenously (5×10^12 vg/kg) to each mouse in every group, and expression of luciferase was detected from Day 1 onwards.
Blood samples of mice were collected by retro-orbital bleeding. […] The contents of IFN-α and IFN-β were determined by using Mouse IFN-β ELISA kit (720131-2, Shanghai Mlbio Co., Ltd.), LEGEND MAX™ Mouse IFN-β ELISA Kit (439407, BioLegend), and Mouse IFN-α ELISA kit (706291-2, Shanghai Mlbio Co., Ltd.).
(§2) Coelenterazine h (40906ES02, Shanghai Yeasen Biotech Co., Ltd.) buffer was prepared first: to 500 mL of ultra-pure water was added 29.72 g of sodium ascorbate, and then 50 mL of Tris-HCl (1 mol/L, pH 7.4). […] of the above working solution is added to a […], and the relative light unit (RLU) was detected with a Synergy H1 multifunctional microplate reader.

IFN-α [2] = test: Serum IFN-α ELISA after AAV9 injection with aspirin at different doses (Example 2); format: in vivo, C57BL/6J mice; conditions: Day 3 post AAV9 injection, vs control group (FIG. 2)
Protocol: as §1
(§3) Blood samples of mice were collected by retro-orbital bleeding. Half of the volume of blood samples was added with sodium citrate at a ratio of 1:9 for anticoagulation, mixed, centrifuged within 30 minutes (6000 rpm, 5 mins), and the supernatant was collected as the mouse plasma, for detection of the expression of Gluc. The remaining blood sample was left at room temperature for 2 hours to separate the serum, centrifuged at 6000 rpm for 15 min, and the supernatant was collected as the mouse serum sample. The contents of IFN-α and IFN-β were determined by using Mouse IFN-β ELISA kit (720131-2, Shanghai Mlbio Co., Ltd.), LEGEND MAX™ Mouse IFN-β ELISA Kit (439407, BioLegend), and Mouse IFN-α ELISA kit (706291-2, Shanghai Mlbio Co., Ltd.).

[3] = test system: expression of luciferase from AAV8-Lxp3.3-Gluc; test: Luciferase expression after AAV8-Lxp3.3-Gluc injection in aspirin-treated mice (Example 3); format: in vivo, C57BL/6J mice
Protocol: as §3, §2
(§4) The injection dose of 50 mg/kg aspirin was used in further study of AAV-mediated expression of exogenous genes by three different AAV serotypes. […] Blood sample were collected and expression level of luciferase was detected following the same methods as described in Example 2.

[4] = test system: expression of luciferase from AAV9-Lxp3.3-Gluc; test: Luciferase expression after AAV9-Lxp3.3-Gluc injection in aspirin-treated mice (Example 3); format: in vivo, C57BL/6J mice
Protocol: as §3, §2, §4

[5] = test system: expression of luciferase from AAV843-Lxp3.3-Gluc; test: Luciferase expression after AAV843-Lxp3.3-Gluc injection in aspirin-treated mice (Example 3); format: in vivo, C57BL/6J mice
Protocol: as §3, §2, §4

[6] = test system: expression level of the transgene (AAV); test: Co-administration of AAV and aspirin, transgene expression (preliminary); format: in vivo; conditions: co-administration of AAV and aspirin in one formulation or separate formulations at the same time; preliminary results
Excerpt: Studies have been conducted for co-administration of AAV and aspirin either in one formulation or in separate formulations but at the same time.

IFN-α [7] = test: Serum IFN-α ELISA after AAV8, AAV9 or AAV843 injection in aspirin-treated mice (Example 4); format: in vivo, C57BL/6J mice
Protocol: as §3
(§5) The injection dose of 50 mg/kg aspirin was used in further study of AAV-mediated expression of exogenous genes by three different AAV serotypes. The study design was similar to that of Example 2. Briefly, for each AAV serotype (i.e., AAV8-Lxp3.3-Gluc, AAV9-Lxp3.3-Gluc, or AAV843-Lxp3.3-Gluc), male C57BL/6J mice (purchased from Shanghai Jiesijie Experimental Animals Co., Ltd.) (n=4) with an average weight of 20 g were divided into two groups. One group was injected with aspirin at 50 mg/kg for 7 consecutive days, and the other group was injected with 5% castor oil (in PBS buffer (catalogue number: 02-024-1ACS, BI)) as a control. On Day 8, 5×10^12 vg/kg of AAV8-Lxp3.3-Gluc, AAV9-Lxp3.3-Gluc, or AAV843-Lxp3.3-Gluc virus (diluted in 150-200 μl PBS) was delivered to each mouse by tail vein injection. Blood sample were collected and expression level of luciferase was detected following the same methods as described in Example 2.
(§6) In the study described in Example 3, the level of IFN-α and IFN-β were determined by using Mouse IFN-β ELISA kit (720131-2, Shanghai Mlbio Co., Ltd.), LEGEND MAX™ Mouse IFN-β ELISA Kit (439407, BioLegend), and Mouse IFN-α ELISA kit (706291-2, Shanghai Mlbio Co., Ltd.) according to the user's manual.

IFN-β = test: Serum IFN-β ELISA after AAV8, AAV9 or AAV843 injection in aspirin-treated mice (Example 4); format: in vivo, C57BL/6J mice
Protocol: as §3, §5, §6

[8] = test system: Gluc expression from AAV9-CB-Gluc in brain; test: Gluc mRNA and enzymatic activity in brain after AAV9-CB-Gluc with aspirin (Example 6); format: in vivo, mice; conditions: for enzymatic activity level of Gluc, up-regulation vs non-treatment group: p<0.01 (FIG. 7B)
Protocol: (§7) Expression of exogenous gene was detected in mice either pre-treated with Aspirin, or co-administered with Aspirin. AAV9-CB-Gluc was prepared according to methods provided in Example 1, except that nucleic acid sequence for CB promoter (see SEQ ID NO: 3) was used. In brief, Aspirin was pre-administrated to a group of mice at 50 mg/kg by intraperitoneal injection for 7 days, followed by administration of AAV9-CB-Gluc (5×10^13 vg/kg) at day 8. In comparison, a group of mice without pre-administration of Aspirin was administrated with Aspirin at 50 mg/kg simultaneously in combination with AAV9-CB-Gluc. 15 days after the AAV9-CB-Gluc administration, the mice were sacrificed, and brain and liver were collected for determination of expression Gluc.

[9] = test system: Gluc expression from AAV9-CB-Gluc in liver; test: Gluc mRNA and enzymatic activity in liver after AAV9-CB-Gluc with aspirin (Example 6); format: in vivo, mice
Protocol: as §7

[10] = test system: IDS enzyme activity in brain (AAV9-CB-IDS); test: IDS enzyme activity in brain of MPSII mice after AAV9-CB-IDS with aspirin pre-treatment (Example 7); format: in vivo, B6N.Cg-Ids^tm1Muen/J mice (MPSII model)
Protocol: The effects of aspirin on improving the expression of therapeutic transgene in brain were determined. AAV9-CB-IDS vector were produced using methods described in Example 1, except that iduronate 2-sulfatase (IDS) gene expression cassette was inserted between the AAV ITRs. The gene encoding IDS was provided in SEQ ID NO: 7 and the protein sequence of IDS was provided in SEQ ID NO: 11. […] A group of wild-type control mice was used as control. The AAV9-CB-IDS vector for treating MPSII was administrated as described in Example 1, at a dose of 3×10^13 vg/kg (i.e. 3E13 group) or 1×10^14 vg/kg (i.e. 1E14 group) to mice pre-treated with aspirin injection. One month after the AAV9-CB-IDS injection, the IDS enzyme activity was detected in brain (FIG. 8).

CC(=O)Oc1ccccc1C(=O)O [aspirin, Acetylsalicylic acid]
expression level of luciferase ([1]; 100 mg/kg of aspirin i.p. 7 days before AAV9-Lxp3.3-Gluc 5×10^12 vg/kg i.v., compared with other doses (FIG. 1)): highest expression level | expression level of luciferase ([1]; aspirin i.p. 7 consecutive days at 1, 15, 30, 50, 100 mg/kg before AAV9-Lxp3.3-Gluc 5×10^12 vg/kg i.v., comparison across dose groups (FIG. 1)): dose dependent increase | level of IFN-α on Day 3 (IFN-α [2]; aspirin 50 mg/kg): significantly lower | level of IFN-α on Day 3 (IFN-α [2]; aspirin 100 mg/kg): significantly lower | transduction in vivo (expression of luciferase) ([3]; aspirin 50 mg/kg 7 consecutive days, AAV8-Lxp3.3-Gluc 5×10^12 vg/kg tail vein, vs control (FIG. 3A)): remarkably promote | day of peak expression of luciferase after AAV injection ([3]; aspirin 50 mg/kg 7 days, AAV8-Lxp3.3-Gluc, control groups also peaked on Day 15): 15 days | transduction in vivo (expression of luciferase) ([4]; aspirin 50 mg/kg 7 consecutive days, AAV9-Lxp3.3-Gluc 5×10^12 vg/kg tail vein, vs control (FIG. 3B)): remarkably promote | day of peak expression of luciferase after AAV injection ([4]; aspirin 50 mg/kg 7 days, AAV9-Lxp3.3-Gluc, control groups also peaked on Day 15): 15 days | transduction in vivo (expression of luciferase) ([5]; aspirin 50 mg/kg 7 consecutive days, AAV843-Lxp3.3-Gluc 5×10^12 vg/kg tail vein, vs control (FIG. 3C)): remarkably promote | day of peak expression of luciferase after AAV injection ([5]; aspirin 50 mg/kg 7 days, AAV843-Lxp3.3-Gluc, control groups also peaked on Day 15): 15 days | expression level of the transgene [6]: increase the expression level of the transgene | IFN-α level (IFN-α [7]; after AAV8 injection, aspirin 50 mg/kg 7 days, control significantly higher except Day 31 (FIG. 4A)): maintained at a relatively low level | IFN-α level (IFN-α [7]; after AAV9 injection, aspirin 50 mg/kg 7 days, vs control group (FIG. 5A)): significantly lower than that in the control group | IFN-α level (IFN-α [7]; after AAV843 injection, Day 31, aspirin treatment vs control group (FIG. 6A)): no significant difference | IFN-α level (IFN-α [7]; after AAV843 injection, aspirin 50 mg/kg 7 days, vs control group, before Day 31 (FIG. 6A)): significantly lower than those in the control group | IFN-β level in the control group versus the aspirin treatment group (IFN-β; after AAV8 injection, aspirin 50 mg/kg 7 days (FIG. 4B)): always significantly higher than that in the aspirin treatment group | IFN-β level (IFN-β; after AAV9 injection, aspirin 50 mg/kg 7 days, Day 1 to Day 31, significantly different from control Day 1 to Day 23 (FIG. 5B)): maintained at a low level | IFN-β level (IFN-β; after AAV843 injection, Day 31, aspirin treatment vs control group (FIG. 6B)): no significant difference | IFN-β level (IFN-β; after AAV843 injection, aspirin 50 mg/kg 7 days, vs control group, before Day 31 (FIG. 6B)): significantly lower than those in the control group | mRNA level of Gluc, up-regulation vs non-treatment group ([8]; aspirin 50 mg/kg simultaneously with AAV9-CB-Gluc, 15 days after AAV (FIG. 7A)): 2.95 fold | enzymatic activity level of Gluc, up-regulation vs non-treatment group ([8]; aspirin 50 mg/kg simultaneously with AAV9-CB-Gluc, 15 days after AAV): 3.55 fold | mRNA level of Gluc, up-regulation vs non-treatment group ([8]; pre-injection of aspirin 50 mg/kg i.p. 7 days, AAV9-CB-Gluc 5×10^13 vg/kg day 8, 15 days after AAV, p<0.01 (FIG. 7A)): 5.5 fold | enzymatic activity level of Gluc, up-regulation vs non-treatment group ([8]; pre-injection of aspirin 50 mg/kg i.p. 7 days, AAV9-CB-Gluc 5×10^13 vg/kg day 8, 15 days after AAV): 7.13 fold | mRNA level of Gluc vs non-treatment group ([9]; aspirin 50 mg/kg simultaneously with AAV9-CB-Gluc (FIG. 7C)): even lower than that of the non-treatment group | level of enzymatic activity of Gluc vs non-treatment group ([9]; aspirin 50 mg/kg simultaneously with AAV9-CB-Gluc (FIG. 7D)): not significantly different | level of enzymatic activity of Gluc, up-regulation vs non-treatment group ([9]; pre-injection of aspirin 50 mg/kg i.p. 7 days, AAV9-CB-Gluc 5×10^13 vg/kg, p<0.01 (FIG. 7D)): 1.95 fold | level of mRNA of Gluc, up-regulation vs non-treatment group ([9]; pre-injection of aspirin 50 mg/kg i.p. 7 days, AAV9-CB-Gluc 5×10^13 vg/kg, p<0.05 (FIG. 7C)): 1.43 fold | IDS enzyme activity in brain vs wild type mice group ([10]; aspirin pre-treatment (50 mg/kg) + AAV9-CB-IDS 3×10^13 vg/kg, one month after injection (FIG. 8)): even higher than that of the wild type mice group | IDS enzyme activity in brain vs group receiving no aspirin but only AAV9-CB-IDS ([10]; aspirin pre-treatment + AAV9-CB-IDS 3×10^13 vg/kg vs AAV9-CB-IDS alone at 3×10^13 vg/kg (p<0.05) or 10^14 vg/kg, one month (FIG. 8)): significantly higher
